Experimental data: US10975042B2, “Method for purifying an amino acid-n-carboxy anhydride” (SHIN-ETSU CHEMICAL CO., LTD., priority 2018, dated 2021)

Assay: Long-term storage stability of NCA, purity by DSC
Type: physicochemical
Settings: for Purity after purification / Purity after 1 month from purification / Purity after 2 months from purification / Purity after a half year from purification / Purity after 1 year from purification / Purity after 2 years from purification: DSC
Experimental: In Examples and Comparative Examples, the purity of each NCA was measured using differential scanning calorimeter (DSC) in accordance with 2.52 thermal analysis method of The Japanese Pharmacopoeia, 17th ed. (2.4.4. measurement of purity). The measurement was performed using Thermo plus EVO DSC8230 (manufactured by Rigalu Corporation) as a measurement apparatus with the sample amount of 1 mg at a temperature increasing rate of 1° C./minute. Incidentally, it is conceived that precise measurement cannot be guaranteed unless the purity is 98 mol % or more according to 2.52 thermal analysis method of The Japanese Pharmacopoeia, 17th ed. (2.4.4. measurement of purity).
Each purified NCA was evaluated for long-term storage stability. […] Regarding the conditions of −20±5° C., the results of purity measured by DSC at after a half year, after 1 year, and after 2 years are shown. Regarding the conditions of 0 to 5° C., the results of purity measured by DSC at after 1 month, 2 months, and a half year are shown. As a comparison, commercially available NCA shown by the general formula (A) (manufactured by Isochem), the purity of which is more than 98 mol % based on the DSC measurement, was evaluated and shown as Comparison 1. This NCA has a residual chlorine concentration of 0.030 mass % and belongs to a lot with extremely low residual chlorine concentration in commercially available NCAs.

[1] = initial value of storage test at 0 to 5° C.
[2] = initial value of storage test at −20±5° C.

Purity after purification [1] [mol %] | Purity after purification [2] [mol %] | Purity after 1 month from purification (storage at 0 to 5° C.) [mol %] | Purity after 2 months from purification (storage at 0 to 5° C.) [mol %] | Purity after a half year from purification (storage at 0 to 5° C.) [mol %] | Purity after 1 year from purification (storage at −20±5° C.) [mol %] | Purity after 2 years from purification (storage at −20±5° C.) [mol %] | Purity after a half year from purification (storage at −20±5° C.) [mol %] | long term storage stability (lowering of purity) at 0 to 5° C. (0 to 5° C., up to a half year) | long term storage stability (lowering of purity) at −20° C. (−20° C., up to 2 years) | Structure (SMILES)
99.40 | 99.40 | 99.39 | 99.41 | 99.41 | 99.41 | 99.40 | 99.40 |  |  | O=C(CCC1NC(=O)OC1=O)OCc1ccccc1 (centres unmarked) [(B)]
99.20 | 99.20 | 99.22 | 99.21 | 99.19 | 99.22 | 99.21 | 99.22 |  |  | CC(=O)OCCCC1NC(=O)OC1=O (centres unmarked) [(C)]
99.00 | 99.00 | 98.98 | 99.00 | 98.95 | 99.00 | 99.05 | 98.95 |  |  | COCOCCCC1NC(=O)OC1=O (centres unmarked) [(D)]
98.90 | 98.90 | 98.90 | 98.88 | 98.86 | 98.88 | 98.89 | 98.89 |  |  | O=C1NC(CCCOCc2ccccc2)C(=O)O1 (centres unmarked) [(E)]
99.10 | 99.10 | 99.12 | 99.10 | 99.10 | 99.12 | 99.12 | 99.12 |  |  | CC(C)(C)OCCCC1NC(=O)OC1=O (centres unmarked) [(F)]
99.25 | 99.25 | 99.24 | 99.25 | 99.26 | 99.26 | 99.25 | 99.25 |  |  | O=C(CC1NC(=O)OC1=O)OCc1ccccc1 (centres unmarked) [(G)]
99.18 | 99.18 | 99.19 | 99.19 | 99.18 | 99.16 | 99.16 | 99.17 |  |  | CC(C)(C)OC(=O)CC1NC(=O)OC1=O (centres unmarked) [(H)]
99.10 | 99.10 | 99.12 | 99.10 | 99.08 | 99.12 | 99.10 | 99.15 |  |  | O=C1CNC(=O)O1 [(J)]
98.94 | 98.94 | 98.93 | 98.92 | 98.90 | 98.92 | 98.93 | 98.90 |  |  | CN1CC(=O)OC1=O [(K)]
99.05 | 99.05 | 99.07 | 99.05 | 99.07 | 99.04 | 99.05 | 99.02 |  |  | CC(C)(C)OC(=O)N1CC(=O)OC1=O [(L)]
99.22 | 99.22 | 99.23 | 99.22 | 99.24 | 99.23 | 99.23 | 99.23 |  |  | CC(=O)N1CC(=O)OC1=O [(M)]
98.88 | 98.88 | 98.88 | 98.86 | 98.86 | 98.86 | 98.85 | 98.85 |  |  | O=C1NC(Cc2ccccc2)C(=O)O1 (centres unmarked) [(N)]
98.80 | 98.80 | 98.77 | 98.75 | 98.73 | 98.79 | 98.79 | 98.77 |  |  | CC(C)C1NC(=O)OC1=O (centres unmarked) [(O)]
98.91 | 98.91 | 98.93 | 98.94 | 98.94 | 98.90 | 98.91 | 98.92 |  |  | CC(C)CC1NC(=O)OC1=O (centres unmarked) [(P)]
99.32 | 99.32 | 99.31 | 99.31 | 99.32 | 99.33 | 99.33 | 99.33 |  |  | O=C1CCNC(=O)O1 [(Q)]
99.03 | 99.03 | 99.05 | 99.04 | 99.03 | 99.06 | 99.05 | 99.07 |  |  | O=C1CCCNC(=O)O1 [(R)]
98.14 | 98.14 | <98 | <98 | <98 | 98.02 | <98 | 98.06 | lowered in 1 month | the purity was lowered in 2 years | CC(C)(C)OC(=O)CCC1CC(=O)OC1=O (centres unmarked) [Comparison 1, reference compound]

Structure (SMILES) | Purity after purification [1] [mol %] | Purity after purification [2] [mol %] | Purity after 1 month from purification (storage at 0 to 5° C.) [mol %] | Purity after 2 months from purification (storage at 0 to 5° C.) [mol %] | Purity after a half year from purification (storage at 0 to 5° C.) [mol %] | Purity after 1 year from purification (storage at −20±5° C.) [mol %] | Purity after 2 years from purification (storage at −20±5° C.) [mol %] | Purity after a half year from purification (storage at −20±5° C.) [mol %] | long term storage stability (lowering of purity) at 0 to 5° C. (0 to 5° C., up to a half year) | long term storage stability (lowering of purity) at −20° C. (−20° C., up to 2 years)
CC(C)(C)[Si](OCCC1NC(=O)OC1=O)(c1ccccc1)c1ccccc1 (centres unmarked) [(I)] | 99.35 | 99.35 | 99.35 | 99.36 | 99.36 | 99.36 | 99.36 | 99.35 |  | 
